How the values were obtained:
[1] = molecular target: mTOR (human recombinant aa mTOR 1360-2549) (Homo sapiens (Human), UniProt P42345); assay: mTOR enzymatic test by TR-FRET (phosphorylation of GFP-4EBP1); type: biochemical
Experimental: Model 1: mTOR Enzymatic Test by TR-FRET (Time-resolved Fluorescence Resonance Energy Transfer).
The test detects the phosphorylation of the substrate GFP-4EBP1 using a terbium-labelled antibody that is specific for the phospho-Thr46 epitope. Binding of the Tb-antibody to the phosphorylated GFP peptide allows the transfer of energy from Tb, excited at 340 nm, to GFP with an increase in the fluorescence emission of the GFP at 520 nm. […] The mixture is incubated for 30 minutes at room temperature. 10 μl of solution are taken up and the reaction is quenched by adding 10 μl of Tb-antibody solution (Invitrogen PV4757)/EDTA (2 nM Tb-Ac and 10 mM EDTA final). After 60 minutes at room temperature, the fluorescence at 490 nm, from the Tb emission, and at 520 nm, from the GFP emission, is measured in a BMG PHERAstar reader equipped with a Lanthascreen™ filter (excitation at 340 nm, emission at 490 and 520 nm). The results are given in the form of the 520/490 ratio.

U87MG tumour cells = assay: Test of in vitro proliferation of U87MG tumour cells; type: cell-based; conditions: Homo sapiens, U-87 MG, 72 h, U87MG cells, 72 hours; read-out: U87 Cell Proliferation IC50
Experimental: Model 4: Test of in vitro Proliferation of U87MG Tumour Cells.
The cell growth is determined with the reagent CellTiter 96 AQueous One Solution Cell Proliferation Assay from Promega (Cat. No. G3581).

Akt-pS473 in U87MG cells = conditions: Homo sapiens, U-87 MG; for inhibition at 1 µM: read-out: U87 Akt-pS473 % Inhibition; for IC50: read-out: U87 Akt-pS473 % Inhibition or IC50, nM (IC50), U87MG cells
PI3Kα (p110α/p85α) = PI3Kα (p110α/p85α) (Homo sapiens (Human), UniProt P42336); assay: PI3Kα enzymatic test by measuring the consumption of ATP; type: biochemical
Experimental: Model 2: PI3Kα Enzymatic Test by Measuring the Consumption of ATP.
The test uses a lucifeurerin/luciferase system to measure the concentration of ATP and its consumption during the enzymatic reaction. The test is performed in 96-well format (Corning/Costar 96 black flat-bottomed half-wells plate, ref. 3694) in a total volume of 30 μl.
To 1 μl of inhibitor in 100% DMSO are added (final concentrations) 50 μM of the substrate PIP2 ((L-α-phosphatidyl-D-myoinositol 4,5-bisphosphate, Echelon 117P-4516-0500), 2 μM of ATP and 1.7 μg/ml of PI3Kα, (p110α/p85α, Invitrogen PV4788) in a buffer of Tris/HCl 50 mM pH 7.5, EGTA 1 mM, MgCl2 10 mM, Chaps 0.03%, 1 mM DTT). After 90 minutes, the reaction is quenched by adding 20 μl/well of KinaseGlo reagent (Promega V6713). After 10 minutes in the dark, the luminescence is read on the PHERAStar microplate reader (reading at 0.8 sec/well).
The IC50 values are determined by the preparation of successive threefold dilutions on at least a scale of 10 000.

Chain of PI3Kα (p110α/p85α) (P42336 whole entry): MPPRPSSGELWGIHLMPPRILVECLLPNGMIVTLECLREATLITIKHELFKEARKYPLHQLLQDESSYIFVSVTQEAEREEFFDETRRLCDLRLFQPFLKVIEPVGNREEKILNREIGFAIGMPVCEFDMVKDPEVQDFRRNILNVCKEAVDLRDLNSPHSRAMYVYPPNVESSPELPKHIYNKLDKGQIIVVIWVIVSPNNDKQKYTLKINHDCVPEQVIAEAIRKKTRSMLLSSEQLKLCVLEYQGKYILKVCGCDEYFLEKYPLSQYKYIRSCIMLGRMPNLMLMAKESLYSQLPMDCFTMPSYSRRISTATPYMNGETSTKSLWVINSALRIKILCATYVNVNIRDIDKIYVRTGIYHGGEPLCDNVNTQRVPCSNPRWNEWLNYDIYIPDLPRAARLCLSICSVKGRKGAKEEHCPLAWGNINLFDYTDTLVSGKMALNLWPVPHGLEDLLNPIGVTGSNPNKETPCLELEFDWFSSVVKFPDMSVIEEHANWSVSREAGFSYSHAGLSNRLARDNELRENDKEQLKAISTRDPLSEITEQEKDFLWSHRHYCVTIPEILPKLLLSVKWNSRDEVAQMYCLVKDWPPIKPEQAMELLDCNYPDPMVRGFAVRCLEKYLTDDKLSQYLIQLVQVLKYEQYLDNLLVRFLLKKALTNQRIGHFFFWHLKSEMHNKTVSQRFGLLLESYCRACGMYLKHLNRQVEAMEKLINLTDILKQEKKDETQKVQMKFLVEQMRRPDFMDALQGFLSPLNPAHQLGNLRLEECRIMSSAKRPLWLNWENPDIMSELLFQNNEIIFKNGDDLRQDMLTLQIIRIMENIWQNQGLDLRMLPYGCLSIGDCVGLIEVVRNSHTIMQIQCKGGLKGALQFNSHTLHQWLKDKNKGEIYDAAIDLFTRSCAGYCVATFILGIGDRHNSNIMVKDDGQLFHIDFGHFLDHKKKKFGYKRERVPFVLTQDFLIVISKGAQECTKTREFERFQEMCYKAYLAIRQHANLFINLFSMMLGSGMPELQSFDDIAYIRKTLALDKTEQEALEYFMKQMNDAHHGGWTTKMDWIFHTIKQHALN
Chain of PI3Kα (p110α/p85α) (P27986 whole entry partner): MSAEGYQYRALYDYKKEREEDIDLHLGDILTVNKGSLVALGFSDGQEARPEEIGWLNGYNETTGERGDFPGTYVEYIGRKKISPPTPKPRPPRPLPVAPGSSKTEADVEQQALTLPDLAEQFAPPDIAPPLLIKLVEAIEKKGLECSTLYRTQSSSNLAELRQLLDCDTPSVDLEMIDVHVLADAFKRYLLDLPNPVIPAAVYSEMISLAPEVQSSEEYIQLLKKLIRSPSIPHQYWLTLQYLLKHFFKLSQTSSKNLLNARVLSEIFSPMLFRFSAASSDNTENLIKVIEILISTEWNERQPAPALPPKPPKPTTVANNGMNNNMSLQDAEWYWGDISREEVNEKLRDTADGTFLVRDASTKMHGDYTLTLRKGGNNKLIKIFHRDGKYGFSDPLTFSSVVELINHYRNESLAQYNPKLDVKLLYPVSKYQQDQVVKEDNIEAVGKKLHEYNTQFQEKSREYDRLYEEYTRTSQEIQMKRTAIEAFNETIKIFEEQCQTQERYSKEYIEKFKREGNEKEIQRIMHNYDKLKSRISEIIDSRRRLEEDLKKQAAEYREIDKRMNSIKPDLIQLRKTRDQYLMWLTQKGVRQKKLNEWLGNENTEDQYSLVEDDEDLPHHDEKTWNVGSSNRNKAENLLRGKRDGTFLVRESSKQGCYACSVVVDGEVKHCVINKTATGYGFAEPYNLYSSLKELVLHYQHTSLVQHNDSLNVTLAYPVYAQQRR
Chain of mTOR (human recombinant aa mTOR 1360-2549) (P42345 1360-2549): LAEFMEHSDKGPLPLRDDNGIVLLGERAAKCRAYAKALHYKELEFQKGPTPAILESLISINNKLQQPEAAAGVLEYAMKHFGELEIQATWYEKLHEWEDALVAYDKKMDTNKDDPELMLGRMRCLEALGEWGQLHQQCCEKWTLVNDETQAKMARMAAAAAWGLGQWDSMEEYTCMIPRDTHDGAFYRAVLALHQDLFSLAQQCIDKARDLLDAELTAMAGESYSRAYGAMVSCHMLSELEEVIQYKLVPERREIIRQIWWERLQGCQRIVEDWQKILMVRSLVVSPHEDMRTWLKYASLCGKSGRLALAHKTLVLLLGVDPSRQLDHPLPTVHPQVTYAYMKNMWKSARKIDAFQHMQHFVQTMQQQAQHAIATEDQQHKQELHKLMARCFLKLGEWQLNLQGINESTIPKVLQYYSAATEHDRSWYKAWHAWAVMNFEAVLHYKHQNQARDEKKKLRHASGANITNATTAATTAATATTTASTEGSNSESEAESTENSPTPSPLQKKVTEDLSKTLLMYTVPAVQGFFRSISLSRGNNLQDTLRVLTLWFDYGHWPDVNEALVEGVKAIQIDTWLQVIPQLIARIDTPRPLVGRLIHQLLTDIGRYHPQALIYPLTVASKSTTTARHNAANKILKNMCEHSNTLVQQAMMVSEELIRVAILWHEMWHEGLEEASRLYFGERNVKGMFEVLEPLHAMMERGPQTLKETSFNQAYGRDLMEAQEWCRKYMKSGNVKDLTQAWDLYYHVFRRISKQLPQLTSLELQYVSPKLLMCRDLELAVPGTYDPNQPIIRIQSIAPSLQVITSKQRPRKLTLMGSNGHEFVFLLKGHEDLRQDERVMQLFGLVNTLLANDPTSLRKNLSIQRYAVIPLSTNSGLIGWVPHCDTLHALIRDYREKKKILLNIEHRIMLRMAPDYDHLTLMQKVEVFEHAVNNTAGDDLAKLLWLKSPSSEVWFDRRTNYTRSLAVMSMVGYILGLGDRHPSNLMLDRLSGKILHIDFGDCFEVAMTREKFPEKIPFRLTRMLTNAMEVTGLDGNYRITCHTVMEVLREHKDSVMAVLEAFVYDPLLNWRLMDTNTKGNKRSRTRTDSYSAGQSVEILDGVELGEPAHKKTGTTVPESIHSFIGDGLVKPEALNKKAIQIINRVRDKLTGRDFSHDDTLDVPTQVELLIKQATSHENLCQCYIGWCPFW

Compound `CCN1CC(C)(C)Oc2nc(N3CC4CCC(C3)O4)nc(-c3ccc(NC(=O)Nc4cc(C)nc(C)n4)c(F)c3)c2C1=O` [Example 90, 1-(2,6-Dimethylpyrimidin-4-yl)-3-{4-[6-ethyl-8,8-dimethyl-2-(8-oxa-3-azabicyclo[3.2.1]oct-3-yl)-5-oxo-5,6,7,8-tetrahydro-9-oxa-1,3,6-triazabenzocyclohepten-4-yl]-2-fluorophenyl}urea] has an IC50 [1] of 450 nM, an IC50 (U87MG tumour cells) of 2900 nM and an inhibition at 1 µM (Akt-pS473 in U87MG cells) of 64%.

For `CCN1CC(C)(C)Oc2nc(N3CC4CCC(C3)O4)nc(-c3ccc(NC(=O)O[C@@H](C)CO)c(F)c3)c2C1=O` [Example 61, {4-[6-Ethyl-8,8-dimethyl-2-(8-oxa-3-azabicyclo[3.2.1]oct-3-yl)-5-oxo-5,6,7,8-tetrahydro-9-oxa-1,3,6-triazabenzocyclohepten-4-yl]-2-fluorophenyl}carbamic acid (S)-2-hydroxy-1-methylethyl ester], the IC50 [1] was 993 nM, the IC50 (U87MG tumour cells) was 4670 nM and the IC50 (Akt-pS473 in U87MG cells) was > 1000 nM.

Compound `CCN1CC(C)(C)Oc2nc(N3CC4CCC(C3)O4)nc(-c3ccc(NC(=O)Nc4cnccn4)cc3)c2C1=O` [Example 125, 1-{4-[6-Ethyl-8,8-dimethyl-2-(8-oxa-3-azabicyclo[3.2.1]oct-3-yl)-5-oxo-5,6,7,8-tetrahydro-9-oxa-1,3,6-triazabenzocyclohepten-4-yl]phenyl}-3-pyrazin-2-ylurea] has an IC50 (U87MG tumour cells) of 260 nM and an IC50 (Akt-pS473 in U87MG cells) of 86 nM.

In the case of `CCN1CC(C)(C)Oc2nc(N3CC4CCC(C3)O4)nc(-c3ccc(NC(=O)N[C@@H](C)CO)c(F)c3)c2C1=O` [Example 57, 1-{4-[6-Ethyl-8,8-dimethyl-2-(8-oxa-3-azabicyclo[3.2.1]oct-3-yl)-5-oxo-5,6,7,8-tetrahydro-9-oxa-1,3,6-triazabenzocyclohepten-4-yl]-2-fluorophenyl}-3-((S)-2-hydroxy-1-methylethyl)urea], the IC50 (U87MG tumour cells) is reported as 7580 nM and the IC50 (Akt-pS473 in U87MG cells) is reported as > 1000 nM.

`CCN1CC(C)(C)Oc2nc(N3CC4CCC(C3)O4)nc(-c3ccc(NC(=O)NCC(C)(C)O)c(F)c3)c2C1=O` [Example 24, 1-{4-[6-ethyl-8,8-dimethyl-2-(8-oxa-3-azabicyclo[3.2.1]oct-3-yl)-5-oxo-5,6,7,8-tetrahydro-9-oxa-1,3,6-triazabenzocyclohepten-4-yl]-2-fluorophenyl}-3-(2-hydroxy-2-methylpropyl)urea] was tested, and the IC50 [1] was 1070 nM, the IC50 (U87MG tumour cells) was > 10000 nM and the IC50 (Akt-pS473 in U87MG cells) was > 1000 nM.

For `CCN1CC(C)(C)Oc2nc(N3CC4CCC(C3)O4)nc(-c3ccc(NC(=O)OC[C@@H](C)O)c(F)c3)c2C1=O` [Example 239, {4-[6-Ethyl-8,8-dimethyl-2-(8-oxa-3-azabicyclo[3.2.1]oct-3-yl)-5-oxo-5,6,7,8-tetrahydro-9-oxa-1,3,6-triazabenzocyclohepten-4-yl]-2-fluorophenyl}carbamic acid (R)-2-hydroxypropyl ester], the IC50 [1] was 1070 nM, the IC50 (U87MG tumour cells) was > 10000 nM and the inhibition at 1 µM (Akt-pS473 in U87MG cells) was 38%.

Work on `CCN1CC(C)(C)Oc2nc(N3CC4CCC(C3)O4)nc(-c3ccc(NC(=O)Nc4ccnc(N5CCC(F)(F)CC5)c4)c(F)c3)c2C1=O` [Example 261, 1-(4,4-Difluoro-3,4,5,6-tetrahydro-2H-[1,2′]bipyridinyl-4′-yl)-3-{4-[6-ethyl-8,8-dimethyl-2-(8-oxa-3-azabicyclo[3.2.1]oct-3-yl)-5-oxo-5,6,7,8-tetrahydro-9-oxa-1,3,6-triazabenzocyclohepten-4-yl]-2-fluorophenyl}urea] yielded an IC50 (U87MG tumour cells) of 160 nM and an IC50 (Akt-pS473 in U87MG cells) of 20 nM.

For `Cc1cc(NC(=O)Nc2ccc(-c3nc(N4CC5CCC(C4)O5)nc4c3C(=O)N(C)CC(C)(C)O4)cc2F)ccn1` [Example 60, 1-{2-Fluoro-4-[6,8,8-trimethyl-2-(8-oxa-3-azabicyclo[3.2.1]oct-3-yl)-5-oxo-5,6,7,8-tetrahydro-9-oxa-1,3,6-triazabenzocyclohepten-4-yl]phenyl}-3-(2-methylpyridin-4-yl)urea], the IC50 [1] was 58 nM, the IC50 (U87MG tumour cells) was 46 nM and the IC50 (Akt-pS473 in U87MG cells) was 17 nM.

With `COCCN1CC(C)(C)Oc2nc(N3CC4CCC(C3)O4)nc(-c3ccc(NC(=O)Nc4cccc(OC(F)F)c4)c(F)c3)c2C1=O` [Example 220, 1-(3-Difluoromethoxyphenyl)-3-{2-fluoro-4-[6-(2-methoxyethyl)-8,8-dimethyl-2-(8-oxa-3-azabicyclo[3.2.1]oct-3-yl)-5-oxo-5,6,7,8-tetrahydro-9-oxa-1,3,6-triazabenzocyclohepten-4-yl]phenyl}urea] the IC50 [1] was 348 nM, the IC50 (U87MG tumour cells) was 285 nM and the IC50 (Akt-pS473 in U87MG cells) was 30 nM.

For `CCN1CC(C)(C)Oc2nc(N3CC4CCC(C3)O4)nc(-c3ccc(NC(=O)N[C@H](C)CO)c(F)c3)c2C1=O` [Example 27, 1-{4-[6-ethyl-8,8-dimethyl-2-(8-oxa-3-azabicyclo[3.2.1]oct-3-yl)-5-oxo-5,6,7,8-tetrahydro-9-oxa-1,3,6-triazabenzocyclohepten-4-yl]-2-fluorophenyl}-3-((R)-2-hydroxy-1-methylethyl)urea], the IC50 [1] was 394 nM, the IC50 (U87MG tumour cells) was 9150 nM and the IC50 (Akt-pS473 in U87MG cells) was > 1000 nM.

`CCNC(=O)Nc1ccc(-c2nc(N3CC4CCC(C3)O4)nc3c2C(=O)N(C[C@@H]2CCCN2C(=O)OCC)CC(C)(C)O3)cc1F` [Example 5, (S)-2-[4-[4-(3-ethylureido)-3-fluorophenyl]-8,8-dimethyl-2-(8-oxa-3-azabicyclo[3.2.1]oct-3-yl)-5-oxo-7,8-dihydro-5H-9-oxa-1,3,6-triazabenzocyclohepten-6-ylmethyl]pyrrolidine-1-carboxylic acid ethyl ester] was tested, and the IC50 [1] was 905 nM, the “PI3Ka IC50” value (PI3Kα (p110α/p85α)) was >10000 nM and the IC50 (U87MG tumour cells) was > 10000 nM.

For `CCNC(=O)Nc1ccc(-c2nc(N3CC4CCC(C3)O4)nc3c2C(=O)N(CC)CC(C)(C)O3)cn1` [Example 17, 1-ethyl-3-{5-[6-ethyl-8,8-dimethyl-2-(8-oxa-3-azabicyclo[3.2.1]oct-3-yl)-5-oxo-5,6,7,8-tetrahydro-9-oxa-1,3,6-triazabenzocyclohepten-4-yl]pyridin-2-yl}urea], the IC50 [1] was 2490 nM, the “PI3Ka IC50” value (PI3Kα (p110α/p85α)) was >10000 nM and the IC50 (U87MG tumour cells) was > 10000 nM.

`CCNC(=O)Nc1ccc(-c2nc(N3CC4CCC(C3)O4)nc3c2C(=O)N(CCCO)CC(C)(C)O3)cc1` [Example 9, 1-ethyl-3-{4-[6-(3-hydroxypropyl)-8,8-dimethyl-2-(8-oxa-3-azabicyclo[3.2.1]oct-3-yl)-5-oxo-5,6,7,8-tetrahydro-9-oxa-1,3,6-triazabenzocyclohepten-4-yl]phenyl}urea] was tested, and the IC50 [1] was 65 nM, the “PI3Ka IC50” value (PI3Kα (p110α/p85α)) was >10000 nM and the IC50 (U87MG tumour cells) was 2500 nM.

With `CCNC(=O)Nc1ccc(-c2nc(N3CC4CCC(C3)O4)nc3c2C(=O)N(C[C@@H]2CCCN2C(C)=O)CC(C)(C)O3)cc1F` [Example 6, 1-{4-[6-((S)-1-acetylpyrrolidin-2-ylmethyl)-8,8-dimethyl-2-(8-oxa-3-azabicyclo[3.2.1]oct-3-yl)-5-oxo-5,6,7,8-tetrahydro-9-oxa-1,3,6-triazabenzocyclohepten-4-yl]-2-fluorophenyl}-3-ethylurea] the IC50 [1] was 1070 nM, the “PI3Ka IC50” value (PI3Kα (p110α/p85α)) was >10000 nM and the IC50 (U87MG tumour cells) was 7150 nM.

In the case of `CCN1CC(C)(C)Oc2nc(N3CCOCC3)nc(-c3ccc(NC(=O)NOC)cc3)c2C1=O` [Example 104, 1-Methoxy-3-[4-(6-ethyl-8,8-dimethyl-2-morpholin-4-yl-5-oxo-5,6,7,8-tetrahydro-9-oxa-1,3,6-triazabenzocyclohepten-4-yl)phenyl]urea], the IC50 [1] is reported as 1490 nM, the “PI3Ka IC50” value (PI3Kα (p110α/p85α)) is reported as 3750 nM and the IC50 (U87MG tumour cells) is reported as > 10000 nM.

With `CCN1CC(C)(C)Oc2nc(N3CC4CCC(C3)O4)nc(-c3ccc(NC(=O)Nc4ccn(C)n4)cc3)c2C1=O` [Example 122, 1-{4-[6-Ethyl-8,8-dimethyl-2-(8-oxa-3-azabicyclo[3.2.1]oct-3-yl)-5-oxo-5,6,7,8-tetrahydro-9-oxa-1,3,6-triazabenzocyclohepten-4-yl]phenyl}-3-(1-methyl-1H-pyrazol-3-yl)urea] the IC50 (U87MG tumour cells) was 340 nM and the IC50 (Akt-pS473 in U87MG cells) was 140 nM.

Reference: US9120812B2, “Pyrimidooxazocine derivatives as mTOR-inhibitors” (SANOFI, priority 2012, dated 2015)
